Biological target: T1, Nem1-Spo7 protein phosphatase complex (Saccharomyces cerevisiae, UniProt P38757)
T1 construct: Protein A-tagged Nem1 with Spo7, overexpressed in S. cerevisiae RS453, IgG-Sepharose purified, reconstituted into phospholipid vesicles
T1 sequence (P38757 1-446): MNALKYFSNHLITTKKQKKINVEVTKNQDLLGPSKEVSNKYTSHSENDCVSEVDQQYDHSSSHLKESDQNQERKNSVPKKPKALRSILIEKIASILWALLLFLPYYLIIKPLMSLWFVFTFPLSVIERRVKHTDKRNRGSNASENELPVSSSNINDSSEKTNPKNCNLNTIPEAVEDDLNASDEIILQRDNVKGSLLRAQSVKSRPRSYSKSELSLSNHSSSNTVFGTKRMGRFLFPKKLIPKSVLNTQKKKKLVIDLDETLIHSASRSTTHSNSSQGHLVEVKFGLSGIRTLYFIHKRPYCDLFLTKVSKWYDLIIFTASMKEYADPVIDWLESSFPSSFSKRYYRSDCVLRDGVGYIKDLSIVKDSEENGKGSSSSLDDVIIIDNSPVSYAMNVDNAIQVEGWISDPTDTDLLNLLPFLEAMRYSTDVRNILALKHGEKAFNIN
T1 sequence (P18410 1-259 partner): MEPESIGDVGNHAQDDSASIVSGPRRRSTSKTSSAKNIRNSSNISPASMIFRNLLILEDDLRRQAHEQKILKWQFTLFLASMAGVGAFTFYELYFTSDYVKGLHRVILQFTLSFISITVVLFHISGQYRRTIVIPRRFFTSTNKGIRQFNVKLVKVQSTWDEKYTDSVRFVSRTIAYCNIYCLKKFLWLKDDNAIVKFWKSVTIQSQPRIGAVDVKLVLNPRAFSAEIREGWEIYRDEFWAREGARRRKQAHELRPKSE
Assay: release of […] from […]Pah1, proteoliposomes
Assay type: biochemical
Details: activator (cooperative), direct binding not shown, membrane effect possible; reconstituted in PC/PE/PI/PS vesicles; substrate Pah1 phosphorylated by Pho85-Pho80; 10 mM MgCl2, pH 5.0, 30 °C

Structure (SMILES): CCCCCCCC/C=C\CCCCCCCC(=O)OC[C@H](COP(=O)(O)O)OC(=O)CCCCCCC/C=C\CCCCCCCC [PA]
- fold stimulation at 10 mol %: 3.6 fold
